In brackets after ≈: the same amount, converted by molar mass.
Columns and labels:
[1] = system: MDA-MB-435s human breast cancer cells; experiment: CCK-8 proliferation inhibition, MDA-MB-435s; type: cell-based; conditions: CCK-8 method; for inhibition at 10 µM / inhibition at 100 µM: Homo sapiens, MDA-MB-435S
Method in brief: (§1)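 Inhibition rates were obtained by CCK-8 assay after treating cells with each compound at 100 μM or 10 μM.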

[2] = system: Hut 78 (T-cell Leukemia cell); experiment: MTT cytotoxicity to tumor cell strains, Hut 78; type: cell-based; conditions: Hut 78, MTT; for IC50: Homo sapiens, HuT78, read-out: Cell activity (IC50, μg/ml) Hut 78
Description: (§2) The cytotoxicity of samples to tumor cell strains is determined through MTT.

[3] = system: A549 (human lung adenocarcinoma cells); experiment: MTT cytotoxicity to tumor cell strains, A549; type: cell-based; conditions: for IC50: Homo sapiens, read-out: Cell activity (IC50, μg/ml) A549
Description: as §2

[4] = system: Hut78 T-cell Leukemia cell; experiment: CCK-8 proliferation inhibition, Hut78; type: cell-based; conditions: for inhibition at 10 µM / inhibition at 100 µM: Homo sapiens, read-out: Hut-78 (inhibition %); for inhibition at 10 µM: HuT78, 10 μM; for inhibition at 100 µM: HuT78, 100 μM
Method in brief: as §1

[5] = system: A549 human lung cancer cells; experiment: CCK-8 proliferation inhibition, A549; type: cell-based; conditions: CCK-8 method; for inhibition at 10 µM / inhibition at 100 µM: Homo sapiens, A549
Method in brief: as §1

[6] = system: Colo320 human rectal cancer cells; experiment: CCK-8 proliferation inhibition, Colo320; type: cell-based; conditions: CCK-8 method; for inhibition at 10 µM / inhibition at 100 µM: Homo sapiens, COLO 320
Method in brief: as §1

[7] = system: Hep3B2.1-7 human liver cancer cells; experiment: CCK-8 proliferation inhibition, Hep3B2.1-7; type: cell-based; conditions: CCK-8 method; for inhibition at 10 µM / inhibition at 100 µM: Homo sapiens, Hep3B
Method in brief: as §1

[8] = system: K562 human chronic myeloid leukemia cells; experiment: CCK-8 proliferation inhibition, K562; type: cell-based; conditions: for inhibition at 10 µM / inhibition at 100 µM: Homo sapiens; for inhibition at 10 µM: K562, 10 μM; for inhibition at 100 µM: K562, 100 μM
Method in brief: as §1

[9] = system: Jurkat E6-1 human T-cell lymphoma; experiment: CCK-8 proliferation inhibition, Jurkat E6-1; type: cell-based; conditions: for inhibition at 10 µM / inhibition at 100 µM: Homo sapiens; for inhibition at 10 µM: Jurkat E6.1, 10 μM; for inhibition at 100 µM: Jurkat E6.1, 100 μM
Method in brief: as §1

[10] = system: PC-3 human prostate cancer; experiment: CCK-8 proliferation inhibition, PC-3; type: cell-based; conditions: CCK-8 method; for inhibition at 10 µM / inhibition at 100 µM: Homo sapiens
Method in brief: as §1

[11] = system: K562: human chronic myeloid leukemia cell strain; experiment: MTT cytotoxicity to tumor cell strains, K562; type: cell-based; conditions: for IC50: Homo sapiens, read-out: Cell activity (IC50, μg/ml) K562
Description: as §2

histone deacetylase [12] = experiment: in vitro inhibition activity on histone deacetylase (rat liver homogenate, MAL fluorescent substrate); type: biochemical, rats; conditions: n = 4, 37° C., 16 hours
Description: A 96-well plate (black) for determining […] is made by Costar Company of U.S. The histone deacetylase is obtained by homogenization of liver of rats. The histone deacetylase reacts with small molecular fluorescent substrate MAL such that the substrate MAL is deacetylated to become ML.
The compound to be detected is dissolved with 200 μL of DMSO. The stock solution of the compound to be detected is diluted with PBS to a concentration of the working solution. The histone deacetylase, the MAL fluorescent substrate and the compound to be detected are mixed in a water bath at 37° C. and reacted 16 hours. The final concentration of the compound to be detected is: MS275 and its similar compound: 10, 100 μmol/.
The reaction solution is extracted with ethyl acetate. The extract is pumped in vacuum and thereto added 110 μL of methanol (40%). Taking 50 μL/well to a 96-well plate and making a fluorescent detection at 325/390 nm.
The negative control wherein histone deacetylase is not added to the reaction is 100% inhibition. The control that only contains histone deacetylase without any inhibitor is the background (0% inhibition). The inhibition rate of the sample to be detected=(the detected fluorescent value−the background)/(the fluorescent value of the negative control−background)×100%
The inhibition rate and the standard deviation in the results are the average inhibition percentage and the standard deviation of each parallel well in each dosage group.

histone deacetylase [13] = experiment: in vitro inhibition of histone deacetylase by HDAC inhibitor screening kit (Biovision K340-100); type: biochemical
Description: An assay for determining the in vitro inhibition activity of the compound on histone deacetylase is conducted according to the specification of HDAC inhibitor screeing kid (Biovision Company/Catalog #K340-100). […]

[14] = system: PANC-1 human pancreatic cancer cells; experiment: CCK-8 proliferation inhibition, PANC-1; type: cell-based; conditions: for inhibition at 10 µM / inhibition at 100 µM: Homo sapiens; for inhibition at 10 µM: PANC-1, 10 μM; for inhibition at 100 µM: PANC-1, 100 μM
Method in brief: as §1

Compound | 435s(inhibition %) ([1]; compound concentration 10 μM) [%] | 435s(inhibition %) ([1]; compound concentration 100 μM) [%] | Cell activity (IC50, μg/ml) Hut 78 [2] [µg/mL] | Cell activity (IC50, μg/ml) A549 [3] [µg/mL] | Hut-78 (inhibition %) ([4]; 10 μM) [%] | Hut-78 (inhibition %) ([4]; 100 μM) [%] | A549 (inhibition %) ([5]; compound concentration 10 μM) [%] | A549 (inhibition %) ([5]; compound concentration 100 μM) [%] | Colo320 (inhibition %) ([6]; compound concentration 10 μM) [%] | Colo320 (inhibition %) ([6]; compound concentration 100 μM) [%] | Hep3B (inhibition %) ([7]; compound concentration 10 μM) [%] | Hep3B (inhibition %) ([7]; compound concentration 100 μM) [%] | inhibition rate % average number (histone deacetylase [12]; dosage 10 μmol/L) [%] | inhibition rate % average number (histone deacetylase [12]; dosage 100 μmol/L) [%] | Inhibition rate(%) (histone deacetylase [13]; 3.91 μM) | Inhibition rate(%) (histone deacetylase [13]; 62.5 μM) | Inhibition rate(%) (histone deacetylase [13]; 2 mM) | IC50 [2] [µg/mL] | IC50 [3] [µg/mL] | IC50 [11] [µg/mL] | also measured
Nc1ccccc1NC(=O)c1ccc(CNC(=O)OCc2cccnc2)cc1 [MS-275, reference compound] | 2.7 | 59.3 | 0.15 | 24.42 | 61.8 | 85.3 | 58.9 | 92.3 | 18.0 | 61.6 | 10.8 | 52.1 | 45.588 | 66.300 | 32.5 | 60.5 | 82.2 | – | – | – | K562 (inhibition %) ([8]; 10 μM): 66.2%; K562 (inhibition %) ([8]; 100 μM): 74.6%; Jurkat E6-1 (inhibition %) ([9]; 10 μM): 89.5%; Jurkat E6-1 (inhibition %) ([9]; 100 μM): 96.1%; PC-3 (inhibition %) ([10]; compound concentration 10 μM): 12.5%; PC-3 (inhibition %) ([10]; compound concentration 100 μM): 71.5%; Cell activity (IC50, μg/ml) K562 [11]: 3.20 µg/mL; PANC-1 (inhibition %) ([14]; 10 μM): 12.4%; PANC-1 (inhibition %) ([14]; 100 μM): 31.6%
O=C(NCc1ccc(C(=O)Nc2ccccn2)cc1)OCc1cccnc1 [V-2, N-(2-pyridyl)-4-[(3-pyridylmethoxyacyl)aminomethyl]benzamide] | – | – | – | – | – | – | – | – | – | – | – | – | −0.124 | 0.080 | – | – | – | 76.2 (≈ 210 µM) | > 100 | > 100 | –
O=C(NCc1ccc(C(=O)Nc2cccnc2)cc1)OCc1cccnc1 [V-3, N-(3-pyridyl)-4-[(3-pyridylmethoxyacyl)aminomethyl]benzamide] | – | – | – | – | – | – | – | – | – | – | – | – | 0.170 | 0.481 | – | – | – | 38.8 (≈ 107 µM) | > 100 | > 100 | –
Nc1ncccc1NC(=O)c1ccc(CNC(=O)OCc2cccnc2)cc1 [V-4, N-(2-amino-3-pyridyl)-4-[(3-pyridylmethoxyacyl)aminomethyl]benzamide] | – | – | – | – | – | – | – | – | – | – | – | – | 1.644 | 12.033 | 9.4 | 19.8 | 65.2 | 4.21 (≈ 11.2 µM) | > 100 | > 100 | inhibition at 10 µM ([1]; compound concentration 10 μM): 26.7%; inhibition at 100 µM ([1]; compound concentration 100 μM): 87.5%; inhibition at 10 µM [4]: 36%; inhibition at 100 µM [4]: 67.2%; inhibition at 10 µM ([5]; compound concentration 10 μM): 50.6%; inhibition at 100 µM ([5]; compound concentration 100 μM): 89.7%; inhibition at 10 µM ([6]; compound concentration 10 μM): 33.2%; inhibition at 100 µM ([6]; compound concentration 100 μM): 78.3%; inhibition at 10 µM ([7]; compound concentration 10 μM): 2.6%; inhibition at 100 µM ([7]; compound concentration 100 μM): 37.4%; inhibition at 10 µM [8]: 22.4%; inhibition at 100 µM [8]: 30.8%; inhibition at 10 µM [9]: 48.5%; inhibition at 100 µM [9]: 79.3%; inhibition at 10 µM ([10]; compound concentration 10 μM): 79.5%; inhibition at 100 µM ([10]; compound concentration 100 μM): 91.5%; inhibition at 10 µM [14]: 40.2%; inhibition at 100 µM [14]: 65.4%
Nc1cnccc1NC(=O)c1ccc(CNC(=O)OCc2cccnc2)cc1 [V-5] | – | – | – | – | – | – | – | – | – | – | – | – | 9.422 | 37.240 | 7.6 | 28.0 | 77.1 | 0.4 (≈ 1.06 µM) | > 100 | > 100 | inhibition at 10 µM ([1]; compound concentration 10 μM): 35.8%; inhibition at 100 µM ([1]; compound concentration 100 μM): 86.9%; inhibition at 10 µM [4]: 43.4%; inhibition at 100 µM [4]: 72.8%; inhibition at 10 µM ([5]; compound concentration 10 μM): 65.6%; inhibition at 100 µM ([5]; compound concentration 100 μM): 84.8%; inhibition at 10 µM ([6]; compound concentration 10 μM): 39.6%; inhibition at 100 µM ([6]; compound concentration 100 μM): 92.9%; inhibition at 10 µM ([7]; compound concentration 10 μM): 31.2%; inhibition at 100 µM ([7]; compound concentration 100 μM): 53.6%; inhibition at 10 µM [8]: 21%; inhibition at 100 µM [8]: 64.4%; inhibition at 10 µM [9]: 58.5%; inhibition at 100 µM [9]: 85.9%; inhibition at 10 µM ([10]; compound concentration 10 μM): 90.3%; inhibition at 100 µM ([10]; compound concentration 100 μM): 92.4%; inhibition at 10 µM [14]: 20.7%; inhibition at 100 µM [14]: 74.1%
N-(2-amino-4-pyridyl)-4-[(2-naphthylmethoxyacyl)aminomethyl]benzamide [V-24] | 49.8 | 50.4 | 0.30 | 7.11 | 26.2 | 20.7 | 48.7 | 65.7 | −2.3 | −17.1 | 24.8 | 13.5 | 46.547 | 70.300 | – | – | – | – | – | – | K562 (inhibition %) ([8]; 10 μM): 42.8%; K562 (inhibition %) ([8]; 100 μM): 29.7%; Jurkat E6-1 (inhibition %) ([9]; 10 μM): 37.2%; Jurkat E6-1 (inhibition %) ([9]; 100 μM): 22.1%; PC-3 (inhibition %) ([10]; compound concentration 10 μM): 5.1%; PC-3 (inhibition %) ([10]; compound concentration 100 μM): 3.4%; Cell activity (IC50, μg/ml) K562 [11]: 6.23 µg/mL; PANC-1 (inhibition %) ([14]; 10 μM): 8.0%; PANC-1 (inhibition %) ([14]; 100 μM): 7.8%
